Data: ChEMBL document CHEMBL1127311, “Derivatives of 4-(2'-methoxyphenyl)-1-[2'-(N-2"-pyridinyl-p-iodobenzamido)ethyl]pipera zine (p-MPPI) as 5-HT1A ligands” (J Med Chem, 1994)

biological target: T1, 5-hydroxytryptamine receptor 1A (Rattus norvegicus, UniProt P19327); assay: biochemical
T1 sequence (P19327 whole entry): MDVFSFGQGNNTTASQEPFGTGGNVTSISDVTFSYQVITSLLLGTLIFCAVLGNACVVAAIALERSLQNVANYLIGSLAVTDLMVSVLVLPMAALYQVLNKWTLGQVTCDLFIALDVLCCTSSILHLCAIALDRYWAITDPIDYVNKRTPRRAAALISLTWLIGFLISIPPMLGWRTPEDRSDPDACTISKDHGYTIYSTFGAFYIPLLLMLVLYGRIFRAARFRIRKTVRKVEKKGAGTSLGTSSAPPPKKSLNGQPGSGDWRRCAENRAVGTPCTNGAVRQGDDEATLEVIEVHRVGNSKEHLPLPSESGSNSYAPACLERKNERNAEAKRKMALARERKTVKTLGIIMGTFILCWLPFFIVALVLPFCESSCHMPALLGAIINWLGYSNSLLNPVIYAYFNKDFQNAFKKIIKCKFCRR
Description: In vitro binding affinity to 5-hydroxytryptamine 1A receptor using [125I](R)-(+)-trans-8-OH-PIPAT as radioligand in rat hippocampal homogenate

| IC50 | SMILES |
| --- | --- |
| 15 nM | COc1ccccc1N1CCN(C[C@@H](C(=O)NC(C)(C)C)c2ccccc2)CC1 |

species on record: Rattus norvegicus; assay: not given

| Kd | SMILES |
| --- | --- |
| 0.3 nM | COc1ccccc1N1CCN(CCN(C(=O)c2ccc(F)cc2)c2ccccn2)CC1 |
| 0.3 nM | COc1ccccc1N1CCN(CCN(C(=O)c2ccc(I)cc2)c2ccccn2)CC1 |

biological target: T1, 5-hydroxytryptamine receptor 1A; assay: biochemical; remark: another data set of the same source
Description: In vitro binding affinity to 5-hydroxytryptamine 1A receptor in rat hippocampal homogenate by [125I](R)-(+)-trans-8-OH-PIPAT displacement.

| Ki | SMILES |
| --- | --- |
| 16.1 nM | COc1ccccc1N1CCN(CCN(C(=O)c2cccc(C)c2)c2ccccn2)CC1 |
| 57.9 nM | CCCCCCc1ccc(C(=O)N(CCN2CCN(c3ccccc3OC)CC2)c2ccccn2)cc1 |
| 17.7 nM | COc1ccccc1N1CCN(CCN(C(=O)c2ccc(N)c(I)c2)c2ccccn2)CC1 |
| 2.2 nM | COc1ccccc1N1CCN(CCN(C(=O)c2ccc(C)cc2)c2ccccn2)CC1 |
| 75 nM | CCCCCc1ccc(C(=O)N(CCN2CCN(c3ccccc3OC)CC2)c2ccccn2)cc1 |
| 13.2 nM | CCCCc1ccc(C(=O)N(CCN2CCN(c3ccccc3OC)CC2)c2ccccn2)cc1 |
| 81.8 nM | CCCCCCCc1ccc(C(=O)N(CCN2CCN(c3ccccc3OC)CC2)c2ccccn2)cc1 |
| 10.3 nM | CCCc1ccc(C(=O)N(CCN2CCN(c3ccccc3OC)CC2)c2ccccn2)cc1 |
| 3.5 nM | COc1ccccc1N1CCN(CCN(C(=O)c2ccc(CCl)cc2)c2ccccn2)CC1 |
| 10 nM | COc1ccccc1N1CCN(CCN(C(=O)c2ccc(N)cc2)c2ccccn2)CC1 |
| 22 nM | COc1ccccc1N1CCN(CCN(C(=O)c2ccc(NC(=O)CCl)cc2)c2ccccn2)CC1 |
| 3.2 nM | COc1ccccc1N1CCN(CCN(C(=O)c2ccc(F)cc2)c2ccccn2)CC1 |
| 27 nM | COc1ccccc1N1CCN(CCN(C(=O)c2ccc(C(C)(C)C)cc2)c2ccccn2)CC1 |
| 9.3 nM | CCc1ccc(C(=O)N(CCN2CCN(c3ccccc3OC)CC2)c2ccccn2)cc1 |
| 25 nM | COc1ccccc1N1CCN(CCN(C(=O)c2ccc(N=[N+]=[N-])c(I)c2)c2ccccn2)CC1 |
| 2.5 nM | COc1ccccc1N1CCN(CCN(C(=O)c2ccccc2)c2ccccn2)CC1 |
